Tests used:
[1] = biological target: human PCNA (Homo sapiens, UniProt P12004); experiment: Competition-based fluorescence polarization assay with BODIPY-p21 peptide; format: binding; details: competition FP, abstract statement
[2] = test system: PCNA trimer; experiment: Gel filtration chromatography of PCNA/peptide complexes; format: binding, human; details: Superose 12, peptide : PCNA trimer 1:1; UV 280 nm
[3] = test system: PCNA-dependent DNA synthesis; experiment: Inhibition of PCNA-dependent DNA synthesis in HeLa cell extract; format: biochemical, human; details: PCNA titrated 0.05-2.5 μM (0.1-2.5 μM with 20 μM p21 peptide)
[4] = test system: mammalian cells; details: overexpression in mammalian cells; ref [19]; [20]; cited from earlier work

Chain of human PCNA (P12004 whole entry): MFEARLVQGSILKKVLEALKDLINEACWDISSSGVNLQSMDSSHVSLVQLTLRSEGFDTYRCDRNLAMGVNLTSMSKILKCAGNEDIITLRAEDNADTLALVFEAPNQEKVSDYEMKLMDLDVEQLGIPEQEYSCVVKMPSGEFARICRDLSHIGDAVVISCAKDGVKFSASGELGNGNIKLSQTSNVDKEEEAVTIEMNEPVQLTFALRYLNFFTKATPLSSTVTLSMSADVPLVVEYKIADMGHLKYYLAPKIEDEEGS

| Substance | dissociation constant (in words) [1] | binding of single or multiple PCNA trimers (in words) [2] | rescue of DNA synthesis by added PCNA (in words) [3] | arrest of cell division (in words) [4] |
| --- | --- | --- | --- | --- |
| KRRQTSMTDFYHSKRRLIFSGGSGGSGGSGGSGGSGGSKRRQTSMTDFYHSKRRLIFSGGSGGSGGSGGSGGSGGSKRRQTSMTDFYHSKRRLIFS [trivalent p21 peptide] | low nanomolar dissociation constant | rules out the binding of multiple PCNA trimers | reversed the inhibition | – |
| KRRQTSMTDFYHSKRRLIFSGGSGGSGGSGGSGGSGGSKRRQTSMTDFYHSKRRLIFS [divalent p21 peptide] | low nanomolar dissociation constant | rules out the binding of multiple PCNA trimers | reversed the inhibition | – |
| 20 amino-acid peptide spanning the C-terminus of p21: amino acids 141-160 of the native p21 | – | – | – | able to arrest cell division |

— publication PMC3417354 (Analytical biochemistry, 2012)
